Series [1] deals with coronary arteries subjected to PTCA. As to the kind of experiment: Morphometric analysis of neointima hyperplasia after PTCA and local delivery. The class given is in vivo, pigs. As for the experimental part: Eighteen juvenile farm pigs (9 female, and 9 castrated male) weighing 20-25 kg were studied. The study was approved by, and conducted in accordance with, the guidelines of the Animal Care and Ethical Research Committee of the Montreal Heart Institute. Before the procedure, animals were given 650 mg of acetylsalicylic acid and 30 mg of nifedipine orally, premedicated with intramuscular injection of 6 mg/kg of a mixture of tiletamine hydrochloride and zolazepam hydrochloride, and given 0.05 mg of atropine. The invasive procedure was performed under general anesthesia with a mixture of isoflurane (1 to 1.5%) and oxygen enriched air. The right femoral artery was cannulated percutaneously, and an 8 Fr arterial sheath was introduced. After arterial access had been obtained, 100 mg of lidocaine and 250 U/kg of heparin were administered intra-arterially via the sheath. Activated coagulation time was maintained at >300 seconds throughout the procedure. […] Standard PTCA equipment was used. An 8 Fr right Amplatz guiding catheter and right Judkins guiding catheter were used for cannulation of the left and right coronary arteries, respectively. PTCA was performed with a balloon size chosen to correspond to a balloon/artery ratio of 1.1-1.3. Three 30-second inflations at 10 atm pressure were performed with a 30-second interval between each inflation. Inflations were performed adjacent to major side branches to facilitate identification during harvesting, taking precaution not to include any side branch in the intended PTCA site. The left anterior descending, left circumflex, and right coronary arteries of each animal were subjected to PTCA. After PTCA, each coronary artery of an animal was randomized to receive either 600 μg of 17-beta estradiol locally, or vehicle alone locally, or PTCA only. The chemicals 17-beta estradiol and its vehicle 2-hydroxypropyl-beta-cyclodextrin (HPCD) were purchased from Sigma Chemical Co. The InfusaSleeve catheter (Local Med, Inc.) was used for local delivery.^12 Five ml of the designated substance was delivered at a driving pressure of 10 atm and support balloon pressure of 6 atm. Of the 18 animals, 2 died a few days after PTCA, and were excluded; thus, 16 animals were analyzed. Twelve animals were euthanized at 28 days, and 4 at 7 days. After premedication and anesthesia, the right internal jugular vein and common carotid artery were cannulated. Following cross-clamping of the descending thoracic aorta exposed via a left lateral thoracotomy, exsanguination was performed, with simultaneous administration of 1 l of 0.9% NaCl solution. The heart was perfusion-fixed in vivo with 2 l of 10% buffered formalin at 200 mm Hg pressure, removed from the animal, and placed in 10% buffered formalin solution. Coronary arteries were then dissected free from surrounding tissues. The site of PTCA was identified in relation to adjacent side branches, which served as landmarks. The injured segment was harvested with a 1 cm normal segment proximal and distal to the injured site. Serial sections 3 to 5 mm long were made from the harvested segment, with a minimum of at least 3 sections (maximum 5) from each PTCA site. Sections were stored in buffered 10% formalin and subjected to dehydration with increasing concentrations of alcohol, followed by treatment with xylene and paraffin. Each section was then cut to slices of 6 μm thickness with a microtome (Olympus cut 4060 E), and stained with Verhoeff's stain for morphometric analysis. Measurements were made with a video microscope (Leitz Diaplan, equipped with a Sony DXC 970 MD color video camera) linked to a 486 personal computer and customized software. A minimum of 3 sections for each injured segment were analyzed and results averaged. Analyses were made by a single observer unaware of the treatment group to which each segment had bee allocated. Randomly selected sections were viewed by a second observer (also blinded to protocol) independently; inter-observer variability was <5%. […]

For series [2], the system named is proliferating SMC (PCNA-positive). The experiment in a line: PCNA immunohistochemistry of the proliferative response to injury. The class given is in vivo, pigs. The following applies: 7 days after PTCA. On the procedure: Following slicing with a microtome and blocking of non-specific antibodies, the sections were treated with mouse anti-proliferating cell nuclear antigen (PCNA) antibodies and diluted biotinylated goat anti-mouse antibodies. They were then incubated with avidin-biotin (Elite ABC Kit, Vector Laboratories), and developed with 3,3′-diaminobenzidine (Vector Laboratories). They were finally counter-stained with hematoxylin. Porcine liver cells were used as a positive control. For each section, a 6 μm slice counter-stained with hematoxylin without treatment with the primary antibody (mouse anti-PCNA) served as a negative control. The proliferative response to injury was studied by immunohistochemical analysis of samples from animals euthanized at 7 days. The % proliferating SMC was obtained by dividing the number of PCNA-positive SMC by the total number of SMC in each field; separate measurements were made for neointima and media layers. The proliferating cells were identified as SMC by positive staining of parallel sections with a smooth muscle actin antibody. To standardize comparison among treatment groups, measurements were obtained at 4 fixed locations separated by 90° sites for each section, and the results averaged.

Series [3] concerns coronary arteries subjected to PTCA. As to the kind of experiment: Response to intracoronary acetylcholine by quantitative coronary angiography after PTCA. The class given is in vivo, pigs. On the procedure: The study protocol was approved by the Animal Care and Ethical Research Committee of the Montreal Heart Institute. Juvenile farm pigs weighing 20-25 kg (1 female, and 8 castrated males) were used. On the day of the experiment, animals received 650 mg of acetylsalicylic acid and 30 mg of nifedipine orally, were premedicated with 6 mg/kg of tiletamine hydrochloride and zolazepam hydrochloride, and were given 0.05 mg of atropine intramuscularly. Under general anesthesia (a mixture of 1-1.5% isoflurane and oxygen enriched air), the right femoral artery was cannulated percutaneously. An 8 Fr arterial sheath was introduced, and […] of lidocaine and 250 U/kg of heparin were administered intra-arterially. Additional heparin was administered during PTCA if needed, to maintain an activated coagulation time of >300 seconds.
An 8 Fr right Amplatz guiding catheter and right Judkins guiding catheter were used for cannulation of the left and right coronary arteries, respectively. A standard balloon catheter (corresponding to a balloon/artery ratio of 1.1-1.3:1) was advanced over a 0.014″ floppy guide wire, and 3 successive 30-second inflations at 10 atm pressure were made with a 30 second interval between each inflation. PTCA was performed on all 3 coronary […] of each animal. For local delivery, the InfusaSleeve catheter (LocalMed Inc.) was used, which permits safe drug delivery with negligible additional injury (7). After balloon dilatation, each coronary artery of an animal was randomized to receive either 600:g of 17-beta estradiol (in 5 ml), vehicle alone (5 ml), or PTCA only. The vehicle 2-hydroxypropyl-beta-cyclodextrin (HPCD), and 17-beta estradiol were obtained from Sigma Chem. Co. For local delivery with the InfusaSleeve catheter, a proximal driving pressure of 10 atm and support balloon pressure of 6 atm were utilized.
All 9 animals underwent cardiac catheterization at the end of 4 weeks. After a baseline coronary angiogram, selective cannulation of the proximal portion of a coronary artery was performed with a single lumen balloon catheter (TotalCross, Schneider) for the administration of vasoactive agents. Acetylcholine (Ach) in increasing concentrations of 10^−7 M, 10^−6 M, 10^−5 M, 10^−4 M, was successively infused through the lumen port of the catheter. Each dose was administered for a duration of 3 minutes at a constant rate of 1 ml/min using an infusion pump. Coronary angiography was performed at the end of each dose. After infusion of the highest concentration of Ach (10^−4 M and angiography, 100:g of nitroglycerin was administered via the lumen port of the catheter, and a coronary angiogram performed. The same protocol was repeated for the other 2 coronary arteries. Heart rate, blood pressure, and ECG were monitored continuously throughout the experiment.
Coronary angiography was performed with a single plane imaging system (Electromed Intl). […] Care was taken to maintain the same angulation during angiography of a segment throughout the procedure. Ionic contrast (MD-76, Mallinckrodt Medical Inc) was used throughout the experiment. Images were captured at a frame speed of 30 frames/sec, and stored digitally. A segment of contrast-filled guiding catheter was included in every frame, for the purpose of calibration. Calibration was performed using the known diameter of the contrast-filled guiding catheter as the reference segment, to avoid error due to magnification. […]

For series [4], the system named is endothelium of injured coronary arteries. As to the kind of experiment: Reendothelialization by lectin Dolichos biflorus agglutinin immunohistochemistry. The class given is in vivo, pigs. As for the experimental part:
(§1) The animals were euthanized at 4 weeks. Under general anesthesia as described above, exsanguination was performed with replacement by 1 l of 0.9% NaCl solution. The heart was perfusion-fixed in vivo with 2 l of 10% buffered formalin at 200 mm Hg pressure. The heart was then removed, and the coronary arteries were harvested immediately. From the injured segment (identified in relation to side branches), serial sections of 3-5 mm were made, and stored in 10% buffered formalin solution. The sections were then treated with incremental concentrations of alcohol followed by treatment with xylene and paraffin. Slices of 6:m thickness were prepared, and stained with Verhoeff's stain for assessment of tissue response to injury. […] The % of reendothelialization and, the % of endothelial nitric oxide synthase (eNOS) expression were calculated as follows: (the total length of the luminal surface staining positively/the perimeter of the lumen)×100, respectively. Analysis was performed by an independent examiner with no knowledge of the treatment groups to which the sections belonged. […]

The test system of series [5] is endothelial nitric oxide synthase (eNOS). The experiment in a line: eNOS expression by immunohistochemistry. The class given is in vivo, pigs. As for the experimental part: as §1
For series [6], the system named is human umbilical vein endothelial cells. The following applies: HUVEC exposed to tumor necrosis factor; cited from earlier work.
For series [7] the following is noted: rats, estimated; cited from earlier work.
The mark [8] stands for this setting: 600 μg locally after PTCA, 28 days, mean ± SD.

Entries after “also recorded” stand apart in the source; their conditions may differ.

As for `C[C@]12CC[C@@H]3c4ccc(O)cc4CC[C@H]3[C@@H]1CC[C@@H]2O` [17-beta estradiol], in series [1] (setting [8]), the “% neointima” value is recorded as 12.16 ± 8.89%, the “% stenosis” value is 15.67 ± 11.13%, the “EELref/EELinj (vascular remodeling)” value was 1.01±0.16 and the Neointima area came to 0.4 ± 0.3 mm^2. Besides, in series [1] (setting [8]), the Neointima/Media area is 0.59 ± 0.48 and the Restenotic index is 1.3 ± 0.5. Moreover, the “decrease of neointima formation” value in series [1] (compared to PTCA only, 28 days) is on record as 54.6%. In series [1] (compared to vehicle alone, 28 days), the “decrease of neointima formation” value turned out to be 64.9%. Further, the “performance of lower doses” value in series [1] (doses of 200 and 400 μg, local) was “as performing as the dose of 600 μg”. In series [1] (female pigs), the “% neointima” value is listed as 8.29 ± 3.72%, the “% stenosis” value is given as 11.09 ± 5.16%, the Neointima area was 0.25 ± 0.15 mm^2 and the Neointima/Media area is recorded as 0.32 ± 0.16. The Restenotic index in series [1] (female pigs, 5 segments) worked out at 1.37 ± 0.45. Besides, in series [1] (local delivery, 28 days, in words), the “neointima hyperplasia compared to PTCA only or vehicle alone” value is “markedly less neointima hyperplasia; also recorded: significantly less neointima hyperplasia”. In series [1] (male pigs), the “% neointima” value was 14.93 ± 10.68%, the “% stenosis” value was found to be 18.93 ± 13.39%, the Neointima area was found to be 0.51 ± 0.34 mm^2 and the Neointima/Media area turned out to be 0.78 ± 0.55. The Restenotic index in series [1] (male pigs, 7 segments) was 1.2 ± 0.59. Besides, in series [2], the “% PCNA-positive SMC in the media” value is recorded as 0.4±0.3% and the “% of PCNA-positive SMC in the neointima” value is listed as 0.43±0.52%. Further, the “Diameter-basal (basal coronary artery diameter)” value in series [3] (4 weeks after PTCA and 600 μg locally) amounted to 2.53±0.6 mm. For the same compound, in series [3] (Ach 10^−4M, 4 weeks), the “Diameter-post Ach” value came out at 2.28±0.61 mm. The “coronary artery diameter after nitroglycerin” value in series [3] (after 10^−4 M Ach then nitroglycerin, 4 weeks) was determined as 2.61±0.48 mm. Also, the “vasoconstrictive response to Ach” value in series [3] (any Ach concentration used, in words) was “no significant vasoconstrictive response”. The “changes in heart rate, ECG, or blood pressure” value in series [3] (during the local delivery or intracoronary infusion of vasoactive agents) is given as “No changes”. In series [4] (4 weeks after PTCA), the Reendothelialization is 90.6±5.5%. Also, the “reendothelialization compared to PTCA only and vehicle” value in series [4] (FIG. 4, in words) is recorded as “reendothelialization to a greater degree”. In addition, the “Endothelial nitric oxide synthase expression” value in series [5] (4 weeks after PTCA) was 35.6±11.8%. The “expression of eNOS compared to PTCA only and vehicle” value in series [5] (FIG. 5, in words) is listed as “greater expression of eNOS”. Further, the decrease in apoptosis in series [6] is listed as 50%.

In the case of `CC(O)COC[C@H]1O[C@@H]2O[C@H]3[C@H](O)[C@@H](O)[C@@H](O[C@H]4[C@H](O)[C@@H](O)[C@@H](O[C@H]5[C@H](O)[C@@H](O)[C@@H](O[C@H]6[C@H](O)[C@@H](O)[C@@H](O[C@H]7[C@H](O)[C@@H](O)[C@@H](O[C@H]8[C@H](O)[C@@H](O)[C@@H](O[C@H]1[C@H](O)[C@H]2O)O[C@@H]8COCC(C)O)O[C@@H]7COCC(C)O)O[C@@H]6COCC(C)O)O[C@@H]5COCC(C)O)O[C@@H]4COCC(C)O)O[C@@H]3COCC(C)O` (stereo partly drawn) [HPCD, 2-hydroxypropyl-beta-cyclodextrin], the “toxic dose (nephrotoxicity)” value in series [7] is 200 mg/kg.

The record behind these values is patent US20070141109A1, “Local Deliver of 17-Beta Estradiol for Preventing Vascular Intimal Hyperplasia and for Improving Vascular Endothelium Function after Vascular Injury” (priority 1999, published 2007).
